Results: US8530507B2, “Use of levo-ornidazole in the preparation of anti-anaerobic bacteria infection drugs” (priority 2005, dated 2013)
Like-named read-outs stand apart in the source and are kept apart here.

Key:
Kunming mice = assay: Acute toxicology test, LD50 in mice (Bliss method); format: in vivo; conditions: for LD50: observed 14 days; for Number of dead animals: 10 animals
Procedure: (§1) Kunming mice, half males and half females, with body weights of 18˜22 g, were administered the testing drug solution by injection 8 hours after fasting. The death status of animals was consecutively observed for 14 days after administration.

mice [1] = assay: Effect on the coordination of balancing in mice; format: in vivo; conditions: intravenous injection; for effect on the coordination and balance (number of falling animals): 160 mg/kg; for effect on the coordination and balance, compared with the vehicle control group: doses of 40 and 80 mg/kg
Procedure: Experiments were conducted in 9 administration groups, L-, D- and racemic ornidazole were administered to them at doses of 40, 80 and 160 mg/kg. Positive control group received chlorpromazine at a dose of 3 mg/kg.

[2] = Acute toxicology test, LD50 in mice (Bliss method); format: in vivo; conditions: both sexes, Kunming, mouse, in vivo, read-out: 95% confidence interval (CI) of LD50
Procedure: as §1

mice [3] = conditions: mouse, in vivo, 40 mg/kg
Procedure: The same volume of 0.9% sodium chloride injection containing propylene glycol was administered in the vehicle control group. 30 minute after drug administration, 40 mg/kg of sodium thiopental was administered to mice by intraperitoneal injection. The time for the loss of righting reflex and the time for the recovery were recorded. The injection volume was 0.2 ml/10 g, the administration rate was 0.2 ml/10 sec.

## Cc1ncc([N+](=O)[O-])n1C[C@H](O)CCl [L-ornidazole, 1-(3-chloro-2-S-(−)-hydroxypropyl)-2-methyl-5-nitroimidazole]
Kunming mice; intraperitoneal injection
  LD50: 1378 mg/kg
Kunming mice; intraperitoneal, 1044 mg/kg
  Death rate: 0%
  Probability units (Y): 3.27
  Number of dead animals: 0
Kunming mice; intraperitoneal, 1228 mg/kg
  Death rate: 30%
  Probability units (Y): 4.24
  Number of dead animals: 3
Kunming mice; intraperitoneal, 1445 mg/kg
  Death rate: 60%
  Probability units (Y): 5.20
  Number of dead animals: 6
Kunming mice; intraperitoneal, 1700 mg/kg
  Death rate: 90%
  Probability units (Y): 6.17
  Number of dead animals: 9
Kunming mice; intraperitoneal, 2000 mg/kg
  Death rate: 100%
  Probability units (Y): 7.13
  Number of dead animals: 10
Kunming mice; intravenous injection
  LD50: 332 mg/kg
Kunming mice; intravenous, 243 mg/kg
  Death rate: 0%
  Probability units (Y): 1.06
  Number of dead animals: 0
Kunming mice; intravenous, 270 mg/kg
  Death rate: 0%
  Probability units (Y): 3.04
  Number of dead animals: 0
Kunming mice; intravenous, 300 mg/kg
  Death rate: 20%
  Probability units (Y): 3.72
  Number of dead animals: 2
Kunming mice; intravenous, 333 mg/kg
  Death rate: 30%
  Probability units (Y): 5.05
  Number of dead animals: 3
Kunming mice; intravenous, 370 mg/kg
  Death rate: 100%
  Probability units (Y): 6.38
  Number of dead animals: 10
Kunming mice; oral gavage, 655.4 mg/kg
  Death rate: 0%
  Probability units (Y): 2.87
Kunming mice; oral gavage, 819.2 mg/kg
  Death rate: 10%
  Probability units (Y): 3.86
Kunming mice; oral gavage, 1024 mg/kg
  Death rate: 40%
  Probability units (Y): 4.86
Kunming mice; oral gavage, 1280 mg/kg
  Probability units (Y): 5.86
Kunming mice; oral gavage, 1600 mg/kg
  Death rate: 100%
  Number of dead animals: 10
Kunming mice; oral gavage
  LD50: 1069 mg/kg
Mice [1]
  effect on the coordination and balance (number of falling animals): no significant effect
  effect on the coordination and balance, compared with the vehicle control group: no significant effect

## Cc1ncc([N+](=O)[O-])n1CC(O)CCl (racemic) [racemic ornidazole, ornidazole]
[2]; intravenous injection
  LD50 at 14 days: 272 to 346 mg/kg
[2]; ip, intraperitoneal injection
  LD50 at 14 days: 1030 to 1210 mg/kg
[2]; oral gavage
  LD50 at 14 days: 674 to 878 mg/kg
Kunming mice; intraperitoneal, 887.4 mg/kg
  Death rate: 0%
  Probability units (Y): 3.39
  Number of dead animals: 0
Kunming mice; intraperitoneal, 1044 mg/kg
  Death rate: 30%
  Probability units (Y): 4.42
  Number of dead animals: 3
Kunming mice; intraperitoneal, 1228 mg/kg
  Death rate: 80%
  Probability units (Y): 5.46
  Number of dead animals: 8
Kunming mice; intraperitoneal, 1445 mg/kg
  Death rate: 100%
  Probability units (Y): 6.49
  Number of dead animals: 10
Kunming mice; intraperitoneal, 1700 mg/kg
  Death rate: 100%
  Probability units (Y): 7.52
  Number of dead animals: 10
Kunming mice; intravenous, 243 mg/kg
  Death rate: 0%
  Probability units (Y): 3.22
  Number of dead animals: 0
Kunming mice; intravenous, 270 mg/kg
  Death rate: 30%
  Probability units (Y): 4.06
  Number of dead animals: 3
Kunming mice; intravenous, 300 mg/kg
  Death rate: 50%
  Probability units (Y): 4.90
  Number of dead animals: 5
Kunming mice; intravenous, 333 mg/kg
  Death rate: 50%
  Probability units (Y): 5.73
  Number of dead animals: 5
Kunming mice; intravenous, 370 mg/kg
  Death rate: 100%
  Probability units (Y): 6.57
  Number of dead animals: 10
Kunming mice; oral gavage, 655.4 mg/kg
  Death rate: 0%
  Probability units (Y): 3.20
Kunming mice; oral gavage, 819.2 mg/kg
  Death rate: 20%
  Probability units (Y): 4.20
Kunming mice; oral gavage, 1024 mg/kg
  Death rate: 70%
  Probability units (Y): 5.19
Kunming mice; oral gavage, 1280 mg/kg
  Probability units (Y): 6.19
Kunming mice; oral gavage, 1600 mg/kg
  Death rate: 100%
  Number of dead animals: 10
Mice [1]
  effect on the coordination and balance (number of falling animals): significant effect
  effect on the coordination and balance, compared with the vehicle control group: no significant effect
Mice [3]
  duration of sleeping induced by sodium thiopental, compared with the vehicle control group: significantly extended
